Assays:
[1] = tested on: Rattus norvegicus; test: Increase in paraventricular histamine levels in normal rat at 15 mg/kg, po; format: functional
[2] = tested on: Rhesus monkey; test: Reduction of food intake in rhesus monkey at 1 mg/kg; format: functional, Macaca mulatta; set-up: scale not given: the % may be the effect or the level left
[3] = Oral bioavailability in monkey; format: ADME, organism-based, Macaca mulatta; details: rhesus monkey, in vivo
[4] = Oral bioavailability in dog; format: ADME, organism-based, Canis lupus familiaris; details: in vivo
[5] = Oral bioavailability in rat; format: ADME, organism-based; details: in vivo
[6] = Half life in rat; format: ADME, organism-based; details: in vivo
[7] = Half life in monkey; format: ADME, organism-based, Macaca mulatta; details: rhesus monkey, in vivo
[8] = target: T1, Histamine H3 receptor (Homo sapiens, UniProt Q9Y5N1); test: Binding affinity to human histamine H3 receptor
T1 sequence (Q9Y5N1 whole entry): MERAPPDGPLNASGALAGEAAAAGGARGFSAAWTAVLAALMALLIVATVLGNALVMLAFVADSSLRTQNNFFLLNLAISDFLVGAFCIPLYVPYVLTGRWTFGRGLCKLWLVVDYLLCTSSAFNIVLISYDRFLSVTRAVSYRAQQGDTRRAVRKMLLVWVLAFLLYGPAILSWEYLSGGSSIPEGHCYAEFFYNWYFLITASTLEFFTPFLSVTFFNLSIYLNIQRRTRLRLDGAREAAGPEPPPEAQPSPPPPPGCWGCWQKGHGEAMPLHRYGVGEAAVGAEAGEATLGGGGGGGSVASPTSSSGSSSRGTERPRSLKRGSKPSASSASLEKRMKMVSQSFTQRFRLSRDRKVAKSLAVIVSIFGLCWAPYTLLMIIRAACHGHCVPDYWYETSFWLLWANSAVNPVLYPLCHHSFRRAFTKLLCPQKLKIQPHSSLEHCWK

[9] = target: Histamine H3 receptor (Rattus norvegicus, UniProt Q9QYN8); test: Binding affinity to rat cortical histamine H3 receptor
Histamine H3 receptor (Rattus norvegicus, UniProt Q9QYN8), sequence (Q9QYN8 whole entry): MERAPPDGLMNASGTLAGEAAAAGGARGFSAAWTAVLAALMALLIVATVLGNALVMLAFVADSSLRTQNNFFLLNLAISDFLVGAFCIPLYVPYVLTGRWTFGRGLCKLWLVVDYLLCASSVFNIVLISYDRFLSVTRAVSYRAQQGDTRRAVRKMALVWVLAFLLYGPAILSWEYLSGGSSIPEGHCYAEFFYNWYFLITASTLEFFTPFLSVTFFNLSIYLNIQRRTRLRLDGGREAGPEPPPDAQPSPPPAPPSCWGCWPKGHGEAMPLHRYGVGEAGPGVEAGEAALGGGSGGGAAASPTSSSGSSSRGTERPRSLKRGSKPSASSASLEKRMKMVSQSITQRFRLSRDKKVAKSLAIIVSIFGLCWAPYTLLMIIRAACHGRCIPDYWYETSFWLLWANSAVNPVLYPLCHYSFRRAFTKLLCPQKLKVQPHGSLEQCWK

[10] = Half life in dog; format: ADME, organism-based, Canis lupus familiaris; details: in vivo
[11] = Half life in human plasma; format: ADME, cell-free
[12] = tested on: Cavia porcellus; test: Antiinflammatory activity in po dosed wheal and flare guinea pig model; format: functional; details: read-out: ID50 (the source's name)
[13] = target: Histamine H1 receptor (Homo sapiens, UniProt P35367)
Histamine H1 receptor, sequence (P35367 whole entry): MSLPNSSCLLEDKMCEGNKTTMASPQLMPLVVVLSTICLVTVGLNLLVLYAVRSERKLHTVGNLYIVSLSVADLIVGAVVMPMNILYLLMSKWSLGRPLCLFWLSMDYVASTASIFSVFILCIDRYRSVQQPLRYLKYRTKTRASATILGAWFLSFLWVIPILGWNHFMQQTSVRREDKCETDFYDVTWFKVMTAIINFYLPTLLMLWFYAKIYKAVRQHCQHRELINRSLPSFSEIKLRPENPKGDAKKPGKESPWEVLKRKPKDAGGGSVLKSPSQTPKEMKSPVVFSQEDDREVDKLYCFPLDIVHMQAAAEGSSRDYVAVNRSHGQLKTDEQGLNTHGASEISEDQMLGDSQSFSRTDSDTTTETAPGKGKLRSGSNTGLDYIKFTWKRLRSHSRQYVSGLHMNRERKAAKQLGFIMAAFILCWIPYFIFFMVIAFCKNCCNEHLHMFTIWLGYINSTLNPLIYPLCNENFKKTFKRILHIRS

[14] = tested on: Cavia porcellus; test: Antiinflammatory activity in iv dosed wheal and flare guinea pig model; format: functional; details: read-out: ID50 (the source's name)
[15] = tested on: Rattus norvegicus; test: Increase in histamine release in sc dosed rat prefrontal cortex; format: functional; details: read-out: MED
[16] = tested on: Rattus norvegicus; test: Efficacy in sc dosed novel object recognition 24 hrs delay rat model; format: functional; details: read-out: MED
[17] = tested on: Rattus norvegicus; test: Increase in acetyl choline release in sc dosed rat prefrontal cortex; format: functional; details: read-out: MED
[18] = Half life in rat at 1 mg/kg, po; format: ADME, organism-based; set-up: dose 1 mg/kg, route oral; details: in vivo
[19] = Oral bioavailability in rat at 1 mg/kg; format: ADME, organism-based; details: in vivo
[20] = Volume of distribution in rat; format: ADME, organism-based; details: in vivo
[21] = Oral bioavailability in monkey at 1 mg/kg; format: ADME, organism-based, Macaca mulatta; details: rhesus monkey, in vivo
[22] = Oral bioavailability in dog at 1 mg/kg; format: ADME, organism-based, Canis lupus familiaris; details: in vivo
[23] = target: T1, Histamine H3 receptor; test: Inverse agonist activity at human histamine H3 receptor by GTPgammaS binding assay; format: functional

O=C(/C=C/c1ccc(C(F)(F)F)cc1)N1CCC[C@H]1CN1CCCC1
Activity [1]: 339%
Activity [2]: 75%

C[C@@H]1CCCN1CCc1cc2cc(-c3cn[nH]c3)ccc2o1
bioavailability [3]: 8%
bioavailability [4]: 30%
bioavailability [5]: 26%
half-life [6]: 2.9 h
half-life [7]: 1.8 h
Ki ([8]; read-out: pKi (converted)): 0.501 nM
Ki ([9]; read-out: pKi (converted)): 3.16 nM
half-life [10]: 1.7 h

C[C@H](Cc1c[nH]cn1)/N=C(\c1ccccc1)c1ccccc1O
half-life [11]: > 24 h

CC1(C)CCCN(CCCOc2ccc(C3CCN(C(=O)c4ccc(CCC(=O)O)c5ccccc45)CC3)cc2)C1
ED50 [12]: 2.8 mg/kg
Ki ([8]; read-out: pKi (converted)): 50.1 nM
Ki [13]: 12.6 nM
ED50 [14]: 0.6 mg/kg

CCNC(=O)[C@H]1C[C@@](F)(c2ccc(CN3CCCC3)c(F)c2)C1 [PF-03654746]
minimal effective dose [15]: 1 mg/kg
minimal effective dose [16]: 0.32 mg/kg
minimal effective dose [17]: 3.2 mg/kg

C[C@@H]1CCCN1CCc1ccc2cc(-n3ncccc3=O)ccc2c1
half-life [18]: 4.9 h
bioavailability [19]: 84%
Ki ([8]; read-out: Ki): 0.8 nM

c1cc(OCCCN2CCCCC2)ccc1CN1CCCCC1 [JNJ-5207852]
Vd [20]: > 100 L/kg
half-life [6]: 15 h

C[C@@H]1CCCN1CCc1cc2cc(-c3ccc(C#N)cc3)ccc2o1
bioavailability [19]: 52%
bioavailability [21]: 89%
bioavailability [22]: 74%

CC(C)N1CCCN(C(=O)C2CCN(c3ccc(C(F)(F)F)nc3)CC2)CC1
IC50 [23]: 2.51 nM
Ki ([8]; read-out: pKi (converted)): 0.316 nM

C[C@H]1CC[C@H](C)N1CCCOc1ccc(-c2ccc(C(=O)N3CCOCC3)cc2)cc1 (single isomer, unassigned) [A-349,821]
Ki ([8]; read-out: pKi (converted)): 1.58 nM

C[C@@H]1CCCN1CCc1ccc2cc(-c3ccc(C#N)cc3)ccc2c1
half-life [6]: 5.5 h

C[C@@H](NC(=O)c1ccco1)C(=O)N1CCN(CCCOc2ccc(C(=O)C3CC3)cc2)CC1
Ki ([9]; read-out: pKi (converted)): 0.631 nM

Cc1cc2ncc(-c3ccc4cc(CCN5CCC[C@H]5C)ccc4n3)c(C)n2n1
bioavailability [5]: 90%
half-life [6]: 5.3 h

N#Cc1ccc(-c2ccc(OCCCN3CCCN(C(=O)[C@@H](Cc4cscn4)NC(=O)c4ccco4)CC3)cc2)cc1
Ki ([8]; read-out: pKi (converted)): 1.58 nM

CC(C)(C)CCC#C[C@@H]1C[C@H]1c1c[nH]cn1 [CIPRALISANT]
Ki ([9]; read-out: Ki): 0.18 nM

CNC(=O)c1ccc(Oc2ccc3c(c2)CCN(C2CCC2)CC3)nc1 [GSK189254]
Ki ([9]; read-out: pKi (converted)): 0.631 nM

CS(=O)(=O)c1ccc(C(=O)N2CCN(c3ccc(OC4CCN(C5CCC5)CC4)cc3)CC2)cc1
bioavailability [4]: 90%
bioavailability [5]: > 50%
half-life [6]: 2 h
Ki ([8]; read-out: pKi (converted)): 0.316 nM
Ki [13]: 2510 nM
half-life [10]: 5 h

O=c1c2ccccc2c(Cc2ccc(Cl)cc2)nn1C[C@H]1CCCN1CCCCc1ccc(OCCCN2CCCCCC2)cc1 [GSK-1004723]
Ki [13]: 15.8 nM

C[C@@H](N)C(=O)N1CCN(CCCOc2ccc(C(=O)C3CC3)cc2)CC1
Ki ([8]; read-out: pKi (converted)): 794 nM
